Consider one compound from US11400072B2, “Methods for the treatment of nonalcoholic fatty liver disease and/or lipodystrophy” (Coherus Biosciences, Inc., priority 2015, dated 2022).

The test system of the assay is obese patients with NASH. As to the kind of experiment: 48 week double blind, placebo controlled, randomized, parallel group study of INT131 on hepatic histology of obese patients with NASH. Format: in vivo, human. Conditions: subjects receiving either 1.25 or 2 mg of INT131 once per day. The source says: A 48 week double blind, placebo controlled, randomized, parallel group study will be conducted to evaluate the effect of INT131 on hepatic histology of obese patients with NASH. Specifically, at least 225 subjects are chosen that fit the following criteria: (1) age 18 to 75 years old; (2) body mass index (BMI) greater than 25 kg/m^2 and less than 40 kg/m^2; (3) NAFLD fibrosis score greater than or equal to 1.0 and less than 4.0; (4) average daily alcohol consumption of 10 g/day or less; (5) NAFLD activity score (“NAS”) of 3 or greater; (6) histologically proven steatohepatitis on a diagnostic liver biopsy performed within 6 months of randomization, confirmed central laboratory reading of slides (steatosis >5% lobular inflammation, any amount of ballooning); (7) women who meet the following criteria: women of childbearing potential with a negative urine pregnancy test at Screening who agree to use 1 or more approved methods of birth control during the study. Approved methods of birth control are: hormonal contraception, intrauterine device, diaphragm plus spermicide, female condom plus spermicide. […]

Where [1] appears, read: week 0 compared to week 48, statistically significant versus placebo group.

For the compound `O=S(=O)(Nc1cc(Cl)c(Oc2cnc3ccccc3c2)c(Cl)c1)c1ccc(Cl)cc1Cl` [INT131, 2,4-Dichloro-N-[3,5-dichloro-4-(3-quinolinyloxy)phenyl]benzenesulfonamide], the “liver function test(s)” value was “improvement” and the “most if not all other metabolic parameters outlined above” value is given as “improvement”. Also, under setting [1], the “NAS (NAFLD activity score)” value is “reduction”; the ballooning grade entry was “reduction”; the fibrosis stage result is “reduction”; the “portal and lobular inflammation grade” value is “reduction”. Further, the steatosis grade entry under setting [1] was “reduction”.
